Like-named read-outs stand apart in the source and are kept apart here.
Assays:
[1] = test system: anti OVA-specific IgG1 subclass antibody; assay: Adjuvant activity test: anti OVA-specific IgG1 subclass antibody in serum after subcutaneous immunization with OVA; format: in vivo, BALB/c mice; details: for production of anti OVA-specific IgG1 subclass antibody: dorsal-subcutaneous
Procedure: One week later, the secondary immunization was carried out by dorsal-subcutaneous administration of solutions similar to those of the above-mentioned (1) to (5) again. Two weeks from the secondary immunization, the whole blood and spleen were extracted under anesthesia, and the obtained serum sample was measured for anti OVA-specific IgG1 subclass antibody. A method for measurement of the anti OVA-specific IgG1 subclass antibody in Example 1, and the following Examples 2, 4, 7 to 10 and 13 to 16 is as follows.
To a 96 well plate was added 5 μg/ml OVA at 100 μl/well, and the mixture was incubated at 4° C. overnight. After incubation, the mixture was washed three times with 200 μl of PBS-T (PBS (phosphate buffered saline)+0.05% (v/v) Tween 20) per well, and blocked with 100 μl of 5% FCS (fatal calf serum)/PBS solution per well at room temperature for 1 to 2 hr. Thereafter, the mixture was washed three times with PBS-T (200 μl/well), a diluted serum sample (100 μl/well) or the same amount of 5% FCS/PBS solution as a control was added, and the mixture was incubated at 37° C. for 1 hr. Thereafter, the mixture was washed five times with PBS-T (200 μl/well), a diluted biotinylated anti-mouse IgG1 antibody (100 μl/well) was added, and the mixture was incubated at 37° C. for 45 min. Thereafter, the mixture was washed five times with PBS-T (200 μl/well), a diluted anti-biotin-HRP antibody was added (100 μl/well), and the mixture was incubated at 37° C. for another 30 min. Thereafter, the mixture was washed five times with PBS-T (200 μl/well), TMB substrate solution was added (100 μl/well), and the mixture was incubated at room temperature for 10 to 15 min. Thereafter, a reaction quenching liquid (2N sulfuric acid solution) was added (50 μl/well) to discontinue a color developing reaction, and the absorbance (OD Value=450 nm) was measured by a microplate reader.
One week later, the secondary immunization was carried out by dorsal-subcutaneous administration of solutions similar to those of the above-mentioned (1) to (6) again. Two weeks from the secondary immunization, the whole blood and spleen were extracted under anesthesia, and the obtained serum sample was measured for anti OVA-specific IgG1 subclass antibody.
8-Week-old female BALB/c mice were divided into groups (N=6), and each group was primarily immunized by dorsal-subcutaneous administration of (1) ovalbumin (OVA) ([…] administration group), (2) OVA (10 μg) and, as an adjuvant, N,N′-bis(2-heptylundecanoyl)-L-cystine dimethyl ester (SZ23) ([…]), (3) OVA (10 μg) and N,N′-bis(dodecanoyl)-L-cystine dimethyl ester (SZ24) ([…]), and (4) saline (saline single administration group), each per mouse. One week later, the secondary immunization was carried out by dorsal-subcutaneous administration of solutions similar to those of the above-mentioned (1) to (4) again. Two weeks from the secondary immunization, the whole blood was extracted under anesthesia, and the obtained serum sample was measured for anti OVA-specific IgG1 subclass antibody. SZ24 is disclosed in JP-A-4-230359, which is incorporated herein by reference in its entirety.
8-Week-old female BALB/c mice were divided into groups (N=6), and each group was primarily immunized by dorsal-subcutaneous administration of (1) ovalbumin (OVA) ([…] administration group), (2) OVA (10 μg) and, as an adjuvant, N,N′-bis(2-tetradecylhexadecanoyl)-L-cystine dimethyl ester (SZ37) (0.256 μmol) added to saline, (3) OVA (10 μg) and N,N′-bis(2-octadecyleicosanoyl)-L-cystine dimethyl ester (SZ38) (0.256 μmol) added to saline, (4) OVA (10 μg) and SZ37 (0.256 μmol) dissolved or dispersed in 5% αCD-added saline, and (5) OVA (10 μg) and SZ38 (0.256 μmol) dissolved or dispersed in 5% αCD-added saline, each per mouse. One week later, the secondary immunization was carried out by dorsal-subcutaneous administration of solutions or dispersions similar to those of the above-mentioned (1) to (5) again. […]

[2] = test system: Mouse macrophage-like cell line RAW; assay: Immunostimulatory effect on mouse macrophage-like cell line (CCK-8 cell proliferation, Stimulation Index); format: cell-based; details: 24 hr, compared to well added only with medium
[3] = test system: Human monocyte cell line THP-1; assay: Immunostimulatory effect on human monocyte cell line (CCK-8 cell proliferation, Stimulation Index); format: cell-based; details: 24 hr, compared to well added only with medium
[4] = test system: anti OVA-specific IgE antibody; assay: Allergy induction activity test: anti OVA-specific IgE antibody in serum; format: in vivo, BALB/c mice; details: dorsal-subcutaneous, compared to OVA single administration group
Procedure: 8-Week-old female BALB/c mice were divided into groups (N=6), and each group was primarily immunized by dorsal-subcutaneous administration of (1) ovalbumin (OVA) (10 μg) dissolved in saline as an antigen (OVA single administration group), (2) OVA (10 μg) and, as an adjuvant, N,N′-bis(2-heptylundecanoyl)-L-cystine dimethyl ester (SZ23) (2.56 μmol) (corresponding to 0.2 mg based on aluminum hydroxide gel adjuvant) dissolved in saline (SZ23; 2.56 μmol addition group), (3) OVA (10 μg) and SZ23; 0.256 μmol dissolved in saline (SZ23; 0.256 μmol addition group), (4) OVA (10 μg) and SZ23; 0.0256 μmol dissolved in saline (SZ23; 0.0256 μmol addition group), (5) OVA (10 μg) and aluminum hydroxide gel adjuvant (2.56 μmol) (0.2 mg) dissolved in saline (ALUM addition group, positive control), and (6) saline (saline single administration group), per each mouse. One week later, the secondary immunization was carried out by dorsal-subcutaneous administration of solutions similar to those of the above-mentioned (1) to (6) again. Two weeks from the secondary immunization, the whole blood and spleen were extracted under anesthesia, and the obtained serum sample was measured for anti OVA-specific IgG1 subclass antibody.
The serum sample obtained in Example 2 was measured for an anti OVA-specific IgE antibody. The measurement method of the anti OVA-specific IgE antibody is as follows.
DS mouse IgE ELISA (OVA) kit manufactured by DS Pharma Biomedical Co., Ltd. was used. The protocol is briefly shown below.
The serum sample and a standard reagent for drawing an analytical curve were diluted with a buffer and, after stirring, left standing at room temperature for 10 min. The sample and the standard solution were added to a plate bound with an IgE capture antibody in advance and, after stirring, the mixture was left standing at room temperature for 60 min. […] A reaction quenching liquid was added, the mixture was stirred, and the absorbance (OD Value=450 nm) was immediately measured.

[5] = test system: anti-influenza IgG antibody; assay: Intranasal influenza vaccine adjuvant test: anti-influenza IgG antibody in nasal cavity wash; format: in vivo, BALB/c mice; details: 4.92 μg with influenza vaccine 20 μl, twice, compared to influenza vaccine single administration group
Procedure: (§1) 8-Week-old female BALB/c mice were divided into groups (N=6), and each group was primarily immunized by intranasal administration of (1) saline, (2) influenza vaccine (Influenza HA Vaccine “SEIKEN”, manufactured by Denka Seiken Co. Ltd.) (20 μl) diluted with saline (influenza vaccine single administration group) as an antigen, (3) influenza vaccine (20 μl) and N,N′-bis(octadecanoyl)-L-cystine dimethyl ester (SZ35) (0.55 μg) as an adjuvant diluted with saline, (4) influenza vaccine (20 μl) and N,N′-bis(octadecanoyl)-L-cystine dimethyl ester (SZ35) (1.64 μg) as an adjuvant diluted with saline, and (5) influenza vaccine (20 μl) and N,N′-bis(octadecanoyl)-L-cystine dimethyl ester (SZ35) (4.92 μg) as an adjuvant diluted with saline, each per mouse. […] The obtained serum samples were measured for anti-influenza IgG1 subclass antibody and HI titer assay (hemagglutination inhibition test) was performed. […]
(§2) 0.5 μg/ml influenza vaccine (Influenza HA Vaccine “SEIKEN”, manufactured by Denka Seiken Co. Ltd.) was added to a 96 well plate by 100 μl per well, and the mixture was incubated at 4° C. overnight. […] Thereafter, a reaction quenching liquid (2N sulfuric acid solution) was added (50 μl/well) to discontinue a color developing reaction, and the absorbance (OD Value=450 nm) was measured by a microplate reader.

[6] = test system: anti-influenza IgG1 subclass antibody; assay: Intranasal influenza vaccine adjuvant test: anti-influenza IgG1 subclass antibody in serum; format: in vivo, BALB/c mice; details: twice, compared to influenza vaccine single administration group
Procedure: 8-Week-old female BALB/c mice were divided into groups (N=6), and each group was primarily immunized by intranasal administration of (1) saline, (2) influenza vaccine (Influenza HA Vaccine “SEIKEN”, manufactured by Denka Seiken Co. Ltd.) (20 μl) diluted with saline (influenza vaccine single administration group) as an antigen, (3) influenza vaccine (20 μl) and N,N′-bis(octadecanoyl)-L-cystine dimethyl ester (SZ35) (0.55 μg) as an adjuvant diluted with saline, (4) influenza vaccine (20 μl) and N,N′-bis(octadecanoyl)-L-cystine dimethyl ester (SZ35) (1.64 μg) as an adjuvant diluted with saline, and (5) influenza vaccine (20 μl) and N,N′-bis(octadecanoyl)-L-cystine dimethyl ester (SZ35) (4.92 μg) as an adjuvant diluted with saline, each per mouse. Two weeks later, the secondary immunization was carried out by intranasal administration of solutions similar to those of the above-mentioned (1) to (5) again. Two weeks from the secondary immunization, the whole blood was extracted under anesthesia, and nasal cavity washing was performed. The obtained serum samples were measured for anti-influenza IgG1 subclass antibody and HI titer assay (hemagglutination inhibition test) was performed. As a nasal cavity wash, thorax of mouse was opened to expose trachea, the trachea was incised, an Atom venous catheter with clause was inserted and 1 mL of saline was injected. The liquid discharged from the nose was centrifuged at 10000 g for 3 min, and the supernatant was recovered and used as a nasal cavity wash sample. The nasal cavity wash sample was subjected to the measurement of anti-influenza IgA antibody and IgG antibody. The measurement method was as follows.
as §2

[7] = test system: HA antigen (A/California/7/2009(H1N1)); format: in vivo, BALB/c mice; details: intranasal, twice, compared to influenza vaccine single administration group
[8] = test system: anti-influenza IgA antibody; assay: Intranasal influenza vaccine adjuvant test: anti-influenza IgA antibody in nasal cavity wash; format: in vivo, BALB/c mice; details: 4.92 μg with influenza vaccine 20 μl, twice, compared to influenza vaccine single administration group
Procedure: as §1, §2

[9] = 0.256 μmol dispersed in 5% αCD-added saline with OVA 10 μg, compared to control (OVA in 5% αCD-added saline)
[10] = 2.56 μmol in saline with OVA 10 μg, primary + secondary immunization, serum two weeks after, compared to OVA single administration group
[11] = 0.55 μg with influenza vaccine 20 μl
[12] = 1.64 μg with influenza vaccine 20 μl
[13] = 4.92 μg with influenza vaccine 20 μl

CCCCCCCCCC(CCCCCCC)C(=O)N[C@@H](CSSC[C@H](NC(=O)C(CCCCCCC)CCCCCCCCC)C(=O)OC)C(=O)OC (stereo partly drawn) [SZ23, N,N′-bis(2-heptylundecanoyl)-L-cystine dimethyl ester]
significant cell proliferation: cell proliferation (Stimulation Index) ([2]; final concentration 4 nM) | cell proliferation (Stimulation Index) ([2]; final concentration 400 nM) | cell proliferation (Stimulation Index) ([2]; final concentration 4 μM) | cell proliferation (Stimulation Index) ([3]; THP-1, final concentration 400 nM) | cell proliferation (Stimulation Index) ([3]; THP-1, final concentration 4 μM)
significantly increased: production of anti OVA-specific IgG1 subclass antibody ([1]; 0.0256 μmol in saline with OVA 10 μg, compared to OVA single administration group) | production of anti OVA-specific IgG1 subclass antibody [1, 9] | production of anti OVA-specific IgG1 subclass antibody ([1]; 0.256 μmol in saline with OVA 10 μg, compared to OVA single administration group) | production of anti OVA-specific IgG1 subclass antibody [1, 10]
of the same level: production of anti OVA-specific IgG1 subclass antibody relative to ALUM addition group ([1]; all addition groups 2.56, 0.256 and 0.0256 μmol in saline, compared to aluminum hydroxide gel adjuvant 2.56 μmol (0.2 mg))
not observed: production of anti OVA-specific IgE antibody ([4]; 0.0256 μmol in saline with OVA 10 μg) | production of anti OVA-specific IgE antibody ([4]; 0.256 μmol in saline with OVA 10 μg) | production of anti OVA-specific IgE antibody ([4]; 2.56 μmol in saline with OVA 10 μg)

CCCCCCCCCCCCCCCCCC(=O)N[C@@H](CSSC[C@H](NC(=O)CCCCCCCCCCCCCCCCC)C(=O)OC)C(=O)OC [SZ35, N,N′-bis(octadecanoyl)-L-cystine dimethyl ester]
significantly increase: HI antibody value in the serum [7, 11] | HI antibody value in the serum [7, 12] | HI antibody value in the serum [7, 13]
significantly increased: production of anti OVA-specific IgG1 subclass antibody [1, 9] | production of anti OVA-specific IgG1 subclass antibody [1, 10] | production of anti-influenza IgG antibody in the nasal cavity wash [5] | production of anti-influenza IgG1 subclass antibody in the serum [6, 11] | production of anti-influenza IgG1 subclass antibody in the serum [6, 12] | production of anti-influenza IgG1 subclass antibody in the serum [6, 13] | production of anti-influenza IgA antibody in the nasal cavity wash [8]
